Laboratory results published in US7875261B2, “Fluorinated resorufin compounds and their application” (Life Technologies Corporation, priority 2003, dated 2011).
Values belong to the compound of their own block, whether it stands above or below them.

What was measured:
[1] = Photostability study (continuous irradiation in a spectrofluorimeter); type: physicochemical; settings: solutions matched by optical density 0.03 at 560 nm, aqueous buffer pH 9, continuous irradiation at 560 nm
Procedure: For example, solutions of each were matched by optical density (0.03 at 560 nm in aqueous buffer at pH 9), then continuously irradiated in a spectrofluorimeter at 560 nm for 30 minutes. Over the duration of the experiment, resorufin photobleached to a greater extent than any of the fluorinated analogs.

Bovine hemoglobin = biological target: T1, Bovine hemoglobin (Bos taurus, UniProt P01966+P02070); experiment: Hemoglobin assay; type: biochemical; settings: 50 μM dye, 50 μM H2O2, 37° C., thirty minutes, FIG. 3
T1 construct: purchased Sigma H-2500
T1 sequence (P01966 2-142 limits assumed): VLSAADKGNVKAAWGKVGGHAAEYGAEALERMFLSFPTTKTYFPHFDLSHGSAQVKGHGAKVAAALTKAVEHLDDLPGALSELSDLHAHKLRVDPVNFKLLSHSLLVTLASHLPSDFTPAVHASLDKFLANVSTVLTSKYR
T1 sequence (P02070 whole entry): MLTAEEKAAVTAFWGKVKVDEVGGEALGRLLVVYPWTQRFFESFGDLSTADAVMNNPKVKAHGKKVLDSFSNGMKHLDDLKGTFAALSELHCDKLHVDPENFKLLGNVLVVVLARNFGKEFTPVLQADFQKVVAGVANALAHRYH
Procedure: Amplex Red (Molecular Probes Inc. A-12222) and Compound 4 were each resuspended to 10 mM in dry DMSO. Bovine hemoglobin (Sigma, catalog #H-2500) was serially diluted (in triplicate for each dye) two-fold in a 96-well microplate in 50 μl of 50 mM Tris, pH 7.5. 50 μl of either 100 μM Amplex Red+100 μM H2O2 or 100 μM Compound 4+100 μM H2O2 in 50 mM Tris, pH 7.5 was added to all wells. The final reagent concentrations in the wells was zero to 2000 ng/ml bovine hemoglobin, 50 μM H2O2, and 50 μM Amplex Red or Compound 4 in 100 μl of […], pH 7.5.
(§1) The resulting reactions were incubated at 37° C. in the dark for thirty minutes. At that point, the resulting fluorescence was measured on a PerSeptive Biosystems CytoFluor 4000 microtiter plate reader (Framingham, Mass.). The excitation filter was 530 nm (+/−12.5 nm) and the emission filter 590 nm (+/−17.5 nm), with a gain setting of 40.

COX-2 = biological target: T2, COX-2 (Mus musculus, UniProt Q05769); experiment: Detection of LPS-induced COX-2 activity in RAW 264.7 cell lysate; type: biochemical; settings: 40 μM dye, 80 μM arachidonic acid, 200,000 lysed cell equivalents, 37° C., twenty minutes, FIG. 7
T2 construct: RAW 264.7 mouse macrophage cells (ATCC # TIB-71) were grown overnight; endogenous in cells; host or cells: RAW 264.7 mouse macrophage cells (ATCC TIB-71), LPS-treated, sonicated lysate
T2 sequence (Q05769 18-604): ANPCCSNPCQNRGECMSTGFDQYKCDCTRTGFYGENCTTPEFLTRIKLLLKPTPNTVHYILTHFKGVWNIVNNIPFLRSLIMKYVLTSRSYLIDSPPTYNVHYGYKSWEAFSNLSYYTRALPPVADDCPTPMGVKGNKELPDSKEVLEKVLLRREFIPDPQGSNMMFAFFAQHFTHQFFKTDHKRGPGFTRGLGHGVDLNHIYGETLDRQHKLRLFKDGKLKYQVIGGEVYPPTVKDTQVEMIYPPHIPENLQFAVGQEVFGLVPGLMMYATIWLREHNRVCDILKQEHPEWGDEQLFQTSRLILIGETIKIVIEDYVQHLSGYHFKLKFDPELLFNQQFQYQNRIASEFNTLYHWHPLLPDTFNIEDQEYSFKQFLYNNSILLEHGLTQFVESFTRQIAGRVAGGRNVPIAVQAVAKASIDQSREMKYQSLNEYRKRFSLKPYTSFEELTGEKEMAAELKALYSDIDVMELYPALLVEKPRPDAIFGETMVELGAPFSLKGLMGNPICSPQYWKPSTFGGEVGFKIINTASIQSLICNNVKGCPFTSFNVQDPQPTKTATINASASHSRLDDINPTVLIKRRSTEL
Procedure: The following morning the old media was removed and replaced with 12 ml fresh, warm, DMEM+10% FBS. To one plate, 12 μl of 100 μg/ml lipopolysaccaride (LPS) from E. coli strain 055:B5 (Sigma, catalog #L2880) in water was added. To the other plate, 12 μl of water alone was added. Both plates were incubated for 8 hours, 37° C., 5% CO2. The cells from each plate were gently resuspended into ice-cold 100 mM Tris, pH 7.5 to 4000 cells/μl (counted by hemocytometer). Both batches of cells were lysed with a probe sonicator for 40 seconds with a 30% duty cycle using power output of 3 on a scale of 1 to 10. 50 μl of the resulting cell lysates were added to a 96-well microplate. […] The plate was incubated at room temperature (˜24° C.) for 10 minutes to allow the COX-2 inhibitor time to inhibit the enzyme.
The resulting reactions were incubated at 37° C. in the dark for twenty minutes. At that point, the resulting fluorescence was measured on a PerSeptive Biosystems CytoFluor 4000 microtiter plate reader (Framingham, Mass.). The excitation filter was 530 nm (+/−12.5 nm) and the emission filter 590 nm (+/−17.5 nm), with a gain setting of 50.

Myeloperoxidase = biological target: T3, Myeloperoxidase (Homo sapiens, UniProt P05164); experiment: Detection of myeloperoxidase; type: biochemical; settings: 125 μM Compound 4, 50 μM hydrogen peroxide, PBS, 37° C.
T3 construct: purchased Sigma M-6908
T3 sequence (P05164 49-745): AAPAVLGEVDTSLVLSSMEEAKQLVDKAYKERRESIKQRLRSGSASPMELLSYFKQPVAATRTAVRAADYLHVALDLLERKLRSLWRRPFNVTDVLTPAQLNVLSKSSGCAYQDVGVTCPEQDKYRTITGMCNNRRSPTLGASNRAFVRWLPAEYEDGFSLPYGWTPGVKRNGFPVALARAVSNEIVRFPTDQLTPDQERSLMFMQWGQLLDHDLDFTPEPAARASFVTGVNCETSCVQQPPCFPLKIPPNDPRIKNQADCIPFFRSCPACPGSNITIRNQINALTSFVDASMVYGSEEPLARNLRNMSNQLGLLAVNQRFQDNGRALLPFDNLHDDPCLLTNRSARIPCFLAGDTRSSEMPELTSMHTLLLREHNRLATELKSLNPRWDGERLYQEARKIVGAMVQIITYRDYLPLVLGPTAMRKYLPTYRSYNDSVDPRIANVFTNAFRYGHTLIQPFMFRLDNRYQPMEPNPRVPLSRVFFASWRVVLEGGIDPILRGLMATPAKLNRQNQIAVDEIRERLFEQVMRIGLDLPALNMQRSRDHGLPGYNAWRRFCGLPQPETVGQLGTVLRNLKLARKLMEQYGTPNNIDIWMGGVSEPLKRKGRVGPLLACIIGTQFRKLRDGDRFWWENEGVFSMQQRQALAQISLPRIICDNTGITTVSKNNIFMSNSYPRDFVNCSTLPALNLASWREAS
Procedure: Myeloperoxidase (Sigma # M-6908) was diluted to 1 unit/mL using phosphate buffered saline (PBS, 50 mM sodium phosphate, pH 7.4, 150 mM sodium chloride). The solution was then serially diluted two fold using the same buffer. 50 μL of the preparations were added in a 96-well microplate (Nunc # 449824). 20 μL of 625 μM Compound 4 and 30 μl of 165 μM hydrogen peroxide (Aldrich # 323381) in PBS were added to all wells. The final reagent concentration in the wells was zero to 0.5 U/mL myeloperoxidase, 125 μM Compound 4 and 50 μM hydrogen peroxide in 100 μl of PBS.
The resulting reactions were incubated at 37° C. in a PerSeptive Biosystems CytoFluor 4000 microtiter plate reader (Framingham, Mass.). The excitation filter was 530 nm (+/−12.5 nm) and the emission filter 580 nm (+/−25 nm), with a gain setting of 35. Fluorescence was read every five minutes for up to 30 minutes.

[2] = biological target: T4, horseradish peroxidase (HRP) (Armoracia rusticana, UniProt P00433); experiment: Detection of horseradish peroxidase activity at acidic pH; type: biochemical; settings: for Z-factor: pH 5.5, 50 μM H2O2, 60 minutes at 30° C.; for Lower limit of detection of HRP activity: pH 5.5, dye as reporting fluorogenic substrate
T4 sequence (P00433 31-338): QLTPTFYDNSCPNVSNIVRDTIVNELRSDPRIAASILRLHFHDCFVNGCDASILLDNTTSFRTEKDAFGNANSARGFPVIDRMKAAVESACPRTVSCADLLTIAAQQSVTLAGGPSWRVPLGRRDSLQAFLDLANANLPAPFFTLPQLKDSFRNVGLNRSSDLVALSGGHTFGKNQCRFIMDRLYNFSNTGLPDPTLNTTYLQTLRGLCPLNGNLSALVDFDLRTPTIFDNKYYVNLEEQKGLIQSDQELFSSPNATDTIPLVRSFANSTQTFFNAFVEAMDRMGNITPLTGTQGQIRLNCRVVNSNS
Procedure: A dilution series of horseradish peroxidase (HRP; EC 1.11.1.7) was prepared in 0.1 M sodium acetate, pH 5.5. The enzyme dilutions were added to a CoStar 96-well round bottom plate in 50 μL aliquots. Mixtures containing 100 μM hydrogen peroxide (H2O2), 0.1 M sodium acetate, pH 5.5, and 100 μM Amplex Red or 100 μM Compound 4 were prepared, and reactions were initiated by addition of 50 μL of reagent mixture to the enzyme dilution series. Reactions were done in triplicate, for 60 minutes at 30° C. Fluorescence was measured with a CytoFluor® Series 4000 Multi-Well Plate Reader (PerSeptive Biosystems, Framingham, Mass.), 530+/−12.5 nm excitation, 580+/−25 nm emission. The fluorescent signal was graphed as a function of HRP concentration (See, FIG. 9) and the Z-factor (Table 6) was calculated according to Zhang et al. (1999).

[3] = biological target: T5, Recombinant human cyclooxygenase-2 (COX-2) (Homo sapiens, UniProt P35354); experiment: Cyclooxygenase-2 assay; type: biochemical; settings: 50 μM dye, 100 μM arachidonic acid, 2 μM hemin, 37° C., thirty minutes, FIG. 2
T5 construct: purchased Cayman Chemical
T5 sequence (P35354 18-604): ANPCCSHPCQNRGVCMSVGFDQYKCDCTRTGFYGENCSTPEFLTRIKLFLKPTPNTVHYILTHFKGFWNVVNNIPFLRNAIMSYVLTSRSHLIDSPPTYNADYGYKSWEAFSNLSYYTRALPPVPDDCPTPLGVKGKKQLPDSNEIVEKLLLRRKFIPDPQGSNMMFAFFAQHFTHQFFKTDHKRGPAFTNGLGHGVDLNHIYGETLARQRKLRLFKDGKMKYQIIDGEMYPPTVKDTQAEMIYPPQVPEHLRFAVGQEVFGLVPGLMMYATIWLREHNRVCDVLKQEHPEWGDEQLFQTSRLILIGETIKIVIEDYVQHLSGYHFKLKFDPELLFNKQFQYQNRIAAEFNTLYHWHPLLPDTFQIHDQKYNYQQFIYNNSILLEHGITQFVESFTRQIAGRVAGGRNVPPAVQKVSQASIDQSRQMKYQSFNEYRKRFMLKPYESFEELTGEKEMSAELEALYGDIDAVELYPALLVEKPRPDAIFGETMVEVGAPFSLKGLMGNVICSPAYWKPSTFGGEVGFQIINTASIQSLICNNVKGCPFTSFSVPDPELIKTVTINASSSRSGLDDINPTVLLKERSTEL
Procedure: Amplex Red (Molecular Probes, Inc. A-12222) and Compound 4 were resuspended to 10 mM in dry DMSO. Recombinant human cyclooxygenase-2 (COX-2, from Cayman Chemical) was serially diluted (in triplicate for each dye) two-fold in a 96-well microplate in 50 μl of 100 mM Tris, pH 8.0. 10 μl of 20 μM hemin (a COX-2 cofactor) in 100 mM Tris, pH 8.0 was added to all wells. After a five minute incubation at room temperature to allow the hemin to interact with the COX-2 enzyme, 40 μl of either 125 μM Amplex Red+250 μM arachidonic acid or 125 μM Compound 4+250 μM arachidonic acid in 100 mM Tris, pH 8.0 was added to all wells. The final reagent concentrations in the wells was zero to 50 Units/ml COX-2, 2 μM hemin, 100 μM arachidonic acid, and 50 μM Amplex Red reagent or Compound 4 in 100 μl of 100 mM Tris, pH 8.0.
as §1

Fluorescence remaining after irradiation for 30 minutes at 560 nm [1]: 91%
Structure (SMILES): O=c1ccc2nc3ccc(O)cc3oc-2c1 [resorufin]

Fluorescence remaining after irradiation for 30 minutes at 560 nm [1]: 95%
Structure (SMILES): O=c1ccc2nc3c(F)cc(O)cc3oc-2c1 [Compound 8]

Fluorescence remaining after irradiation for 30 minutes at 560 nm [1]: 98%
Structure (SMILES): O=c1ccc2nc3c(F)c(F)c(O)c(F)c3oc-2c1 [Compound 9]

Further lines, the compound ahead of its results:

Structure (SMILES): O=c1ccc2nc3cc(F)c(O)cc3oc-2c1 [Compound 7]
Fluorescence remaining after irradiation for 30 minutes at 560 nm [1]: 94%

Structure (SMILES): CC(=O)N1c2cc(F)c(O)cc2Oc2cc(O)c(F)cc21 [Compound 4, 2,8-Difluoro-10-acetyl-3,7-dihydroxyphenoxazine]
Fluorescence brightness compared with Amplex Red (Bovine hemoglobin): brighter | Relative fluorescent signal compared with Amplex Red (COX-2): stronger relative fluorescent signal | Limit of detection of myeloperoxidase (Myeloperoxidase): about 9.6 ng/mL | Limit of detection of myeloperoxidase (Myeloperoxidase; FIG. 10): 0.0078 U/mL | Z-factor ([2]; HRP 0.016 units/mL): 0.72 | Z-factor ([2]; HRP 0.032 units/mL): 0.89 | Z-factor ([2]; HRP 0.063 units/mL): 0.90 | Z-factor ([2]; HRP 0.125 units/mL): 0.81 | Z-factor ([2]; HRP 0.25 units/mL): 0.89 | Signal strength and dynamic range compared with Amplex Red ([2]; pH 5.5, FIG. 9): significantly greater | Lower limit of detection of HRP activity [2]: less than 0.016 units/mL | Fluorescent signal compared with Amplex Red [3]: greater fluorescent intensity signal

Structure (SMILES): O=c1ccc2nc3cc(F)c(O)c(F)c3oc-2c1 [Compound 5]
Fluorescence remaining after irradiation for 30 minutes at 560 nm [1]: 96%

Structure (SMILES): O=c1ccc2nc3ccc(O)c(F)c3oc-2c1 [Compound 6]
Fluorescence remaining after irradiation for 30 minutes at 560 nm [1]: 97%

Structure (SMILES): CC(=O)N1c2ccc(O)cc2Oc2cc(O)ccc21 [Amplex Red, reference compound]
Z-factor ([2]; HRP 0.016 units/mL): 1.30 | Z-factor ([2]; HRP 0.063 units/mL): 0.51 | Z-factor ([2]; HRP 0.125 units/mL): 0.69 | Z-factor ([2]; HRP 0.25 units/mL): 0.85 | Lower limit of detection of HRP activity [2]: 0.032 units/mL
